From US9067898B1, “Isothiazole derivatives as GPR120 agonists for the treatment of type II diabetes” (Janssen Pharmaceutica NV, priority 2014, dated 2015) come the findings set out here.

Experiment [1] deals with T1, short form of the GPR120 receptor (GPR120S) (Homo sapiens, UniProt Q5NUL3).
T1 construct: host or cells: PathHunter CHO-K1 GPR120S β-Arrestin Cell Line
The experiment is described as follows: Human GPR120 DiscoveRx PathHunter Beta-Arrestin assay, Procedure β-arrestin B. Type of experiment: cell-based. To be noted: PathHunter CHO-K1 GPR120S β-Arrestin cell line, 5000 cells/well, read-out: hGPR120 β-arrestin B EC50. The text has this:
The binding of an agonist (medium/long chain fatty acids or small molecule agonists) to the G-protein-coupled receptor GPR120 activates phospholipase C, leading to release of intracellular Ca^+2 through the generation of inositol 1,4,5-trisphosphate (InsP3 or IP3). GPR120 activation can also trigger intracellular signaling via recruitment of Beta-Arrestin. In the present method, agonist-induced activation of the human GPR120 receptor is monitored through the use of PathHunter CHO-K1 GPR120 Beta-Arrestin Cell Line engineered by DiscoveRx, as detailed below. The cell lines are designed to co-express both the ProLink/Enzyme Donor (PK)-tagged GPCR and the Enzyme […] (EA)-tagged Beta-Arrestin fusion proteins. Upon GPR120 receptor stimulation/activation, the EA-tagged Beta-Arrestin portion is translocated to the tagged receptor, where the two enzyme fragments are brought within close proximity. Under these conditions, these fragments can interact and form an active Beta-gal enzyme complex through Enzyme Fragment Complementation (EFC). This active Beta-gal complex can enzymatically hydrolyse the substrate to produce a detectable light signal; therefore, activation as a function of agonist concentration can be expressed as an EC50 value to determine relative compound activities. This in vitro assay therefore serves to assess compound agonist activity of the GPR120. Procedure β-Arrestin A: In Procedure β-arrestin A, the cell used were PathHunter CHO-K1 GPR120 β-Arrestin Cell Line, expressing the long form of human GPR120 (Genbank accession number NM 181745), with 3000 cells per well. Procedure β-Arrestin B: In Procedure 3-arrestin B the cells used were PathHunter CHO-K1 GPR120S β-Arrestin Cell Line, expressing the short form of the GPR120 receptor (Accession #NM_181745), with 5000 cells/well. Assay Procedure:
The selected CHO-K1 GPR120 β-Arrestin cells were cultured in Ham's F12 media supplemented with 10% fetal bovine serum (FBS), 1% Glutamine, lx p/s, 800 μg/mL G418 and 300 μg/mL Hygromycin B (for selection). Cell stocks were maintained and grown in a sub-confluent state using standard cell culture procedures. The day before the experiment, the cells were harvested with non-enzymatic cell dissociation buffer and re-suspended in complete growth media at the desired concentration. A Corning 384-plate was then seeded with the proper number of cells in a volume of 25 μL, per well. The seeded plates were incubated overnight at 37° C.
On the day of the experiment, the Assay Buffer containing (a) HBSS with Ca^++ and Mg^++, (b) 20 mM HEPES, and (c) 0.1% BSA stabilizer (pH 7.4) was prepared. The growth medium was gently removed from the cell plates and 20 μL of Assay Buffer added to each well. The plate was then incubated at 37° C. for 60 min. Test compounds were serially diluted in Assay Buffer to desired concentrations (more particularly to one or more of the following μM concentrations: 25, 12.5, 6.25, 3.125, 1.5625, 0.78125, 0.390625, 0.1953125, 0.09765625, 0.048828125, 0.024414063, 0.012207031). Five μL of compound dilution was then added to each well and the plate incubated at 37° C. for 90 min. The detection reagents were prepared according to the manufacture's instruction. Twelve μL of the detection reagents were added to each well and the plate incubated at room temperature for 60 min.
The plates were read on an EnVision instrument, using Protocol name: Luminescence, Plate type: 384 Costar, Measurement height: 3 mm, Measurement time: 1 s, Aperture: 384 Plate aperture. The % activity relative to the positive control was calculated using the following equation:
The % Activity values were plotted versus the concentration of test compound and fitted to a sigmoidal dose-response curve with a Hill slope=1 (fixed value) using nonlinear regression with GraphPad Prism 5.0 to calculate the EC50 values. […]

Another experiment has as its target T2, Human GPR120 short form (Homo sapiens, UniProt Q5NUL3).
T2 construct: expressed in transfected cells
T2 sequence (Q5NUL3 1-361): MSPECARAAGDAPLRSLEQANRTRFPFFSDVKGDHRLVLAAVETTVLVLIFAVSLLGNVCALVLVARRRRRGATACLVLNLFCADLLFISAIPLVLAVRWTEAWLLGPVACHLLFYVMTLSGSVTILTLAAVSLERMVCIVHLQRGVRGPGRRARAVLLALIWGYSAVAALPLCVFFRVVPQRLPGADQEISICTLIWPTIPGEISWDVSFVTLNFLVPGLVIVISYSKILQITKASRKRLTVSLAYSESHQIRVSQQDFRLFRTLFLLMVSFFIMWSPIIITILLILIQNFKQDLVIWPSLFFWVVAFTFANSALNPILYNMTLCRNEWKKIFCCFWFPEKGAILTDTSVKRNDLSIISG
Nature of the experiment: Human GPR120 calcium flux assay (FLIPR), Procedure Calcium A. Type of experiment: cell-based. To be noted: HEK-293 cells expressing human GPR120 short form, 2500 cells/well; read-out: GPR120 Ca2+ Assay A EC50. In a few lines:
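HEK293 cells stably expressing the short isoform (NM_001195755.1), 2500/well, starved 1 h, then loaded with Fluo-4 NW plus probenecid (30 min 37 °C, 15 min RT). Compound solutions 0.012–100 μM, 0.2% DMSO final; FLIPR read 300 s after addition. EC50 from Fmax−Fmin fitted to variable-slope sigmoid (Hill <2).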
Background: Calcium assays in cells follow changes in intracellular calcium, usually with a dye or a luminescent sensor.

In general, EC50 refers to the concentration needed to bring the measured effect to its halfway point.

T1 sequence (P32121 whole entry partner, one chain of several): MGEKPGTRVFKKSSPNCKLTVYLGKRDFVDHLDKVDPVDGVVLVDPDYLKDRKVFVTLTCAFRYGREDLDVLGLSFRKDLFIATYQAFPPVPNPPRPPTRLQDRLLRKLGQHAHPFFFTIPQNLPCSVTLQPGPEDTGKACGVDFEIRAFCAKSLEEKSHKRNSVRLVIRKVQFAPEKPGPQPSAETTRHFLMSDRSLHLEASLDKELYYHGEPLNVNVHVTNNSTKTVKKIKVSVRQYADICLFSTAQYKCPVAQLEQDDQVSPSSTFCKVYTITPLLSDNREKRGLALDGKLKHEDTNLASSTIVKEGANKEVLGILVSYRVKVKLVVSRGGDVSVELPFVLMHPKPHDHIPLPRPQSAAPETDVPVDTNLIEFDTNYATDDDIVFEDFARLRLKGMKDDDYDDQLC

On to `Cc1ccccc1-c1snc(C(F)(F)F)c1COc1ccc(CCC(=O)O)c(C(F)(F)F)c1` [Cpd 203, 3-(4-[[5-(2-methylphenyl)-3-(trifluoromethyl)-1,2-thiazol-4-yl]methoxy]-2-(trifluoromethyl)phenyl) propanoic acid], for which the EC50 in experiment [1] came to 1480 nM; at Human GPR120 short form it was 478 nM.

With `CCc1ccc(-c2nsc(C(F)(F)F)c2COc2c(F)cc(CCC(=O)O)cc2F)c(F)c1` [Cpd 128, 3-(4-((3-(4-ethyl-2-fluorophenyl)-5-(trifluoromethyl)isothiazol-4-yl)methoxy)-3,5-difluorophenyl)propanoic acid], the EC50 in experiment [1] is 59 nM; at Human GPR120 short form, 124 nM.

As for `O=C(O)CCc1cc(F)c(OCc2c(-c3ccc(C(F)(F)F)cc3)nsc2C(F)(F)F)c(F)c1` [Cpd 121, 3-(3,5-difluoro-4-[[5-(trifluoromethyl)-3-[4-(trifluoromethyl)phenyl]-1,2-thiazol-4-yl]methoxy]phenyl)propanoic acid], the EC50 in experiment [1] stood at 51 nM; at Human GPR120 short form, 108 nM.

For `COc1cccc(-c2nsc(C(F)(F)F)c2COc2ccc(CCC(=O)O)c(C)c2C)c1` [Cpd 126, 3-(4-[[3-(3-methoxyphenyl)-5-(trifluoromethyl)-1,2-thiazol-4-yl]methoxy]-2,3-dimethylphenyl) propanoic acid], the results for the EC50 (in experiment [1]; at Human GPR120 short form) were 223 nM and 121 nM, respectively.

For `CC(Cc1cc(F)c(OCc2c(-c3ccc(F)cc3F)nsc2C(F)(F)F)c(F)c1)C(=O)O` (stereo not drawn) [Cpd 196, 3-(4-((3-(2,4-difluorophenyl)-5-(trifluoromethyl)isothiazol-4-yl)methoxy)-3,5-difluorophenyl)-2-methylpropanoic acid], the EC50 in experiment [1] came out at 195 nM; on Human GPR120 short form, 370 nM.

In the case of `CC(Cc1ccc(OCc2c(-c3ccc(Cl)c(F)c3)nsc2C(F)(F)F)cc1)C(=O)O` (stereo not drawn) [Cpd 165, 3-(4-((3-(4-chloro-3-fluorophenyl)-5-(trifluoromethyl)isothiazol-4-yl)methoxy)phenyl)-2-methylpropanoic acid], the EC50 worked out at 435 nM in experiment [1] and 215 nM at Human GPR120 short form.

Regarding `COc1cc(F)c(-c2nsc(C(F)(F)F)c2COc2c(F)cc(CCC(=O)O)cc2F)c(F)c1` [Cpd 197, 3-(4-[[3-(2,6-difluoro-4-methoxyphenyl)-5-(trifluoromethyl)-1,2-thiazol-4-yl]methoxy]-3,5-difluorophenyl)propanoic acid], the EC50 in experiment [1] came to 224 nM; at Human GPR120 short form it was 392 nM.

In the case of `Cc1c(CCC(=O)O)ccc(OCc2c(-c3ccc(C(F)(F)F)cc3)nsc2C(F)(F)F)c1C` [Cpd 224, 3-(2,3-dimethyl-4-[[5-(trifluoromethyl)-3-[4-(trifluoromethyl)phenyl]-1,2-thiazol-4-yl]methoxy]phenyl)propanoic acid], the results for the EC50 (in experiment [1]; on Human GPR120 short form) were 229 nM and 831 nM, respectively.

Consider “3-(4-[[5-chloro-3-(4-chlorophenyl)thiophen-2-yl]methoxy]-2,3-dimethylphenyl) propanoic acid [Cpd 6]”, for which the concentration giving a half-maximal response (EC50) in experiment [1] is 1940 nM; at Human GPR120 short form, 405 nM.

On to `O=C(O)CCc1cc(F)c(OCc2c(C3CC(F)(F)C3)nsc2C(F)(F)F)c(F)c1` [Cpd 147, 3-(4-[[3-(3,3-difluorocyclobutyl)-5-(trifluoromethyl)-1,2-thiazol-4-yl]methoxy]-3,5-difluorophenyl) propanoic acid], for which the results for the EC50 (in experiment [1]; on Human GPR120 short form) were 390 nM and 165 nM, respectively.

On to `Cc1c(CCC(=O)O)ccc(OCc2c(C(F)(F)F)nsc2-c2ccc(Cl)c(F)c2)c1C` [Cpd 136, 3-(4-[[5-(4-chloro-3-fluorophenyl)-3-(trifluoromethyl)-1,2-thiazol-4-yl]methoxy]-2,3-dimethylphenyl)propanoic acid], for which the EC50 stood at 526 nM in experiment [1] and 135 nM on Human GPR120 short form.

As for `COc1ccc(-c2nsc(C(F)(F)F)c2COc2ccc(CCC(=O)O)c(C)c2C)cn1` [Cpd 167, 3-(4-[[3-(6-methoxypyridin-3-yl)-5-(trifluoromethyl)-1,2-thiazol-4-yl]methoxy]-2,3-dimethylphenyl)propanoic acid], the EC50 is 352 nM in experiment [1] and 222 nM at Human GPR120 short form.

`O=C(O)CCc1ccc(OCc2c(-c3ccc(Cl)cc3)nsc2C(F)(F)F)cc1C(F)(F)F` [Cpd 173, 3-(4-[[3-(4-chlorophenyl)-5-(trifluoromethyl)-4-yl]methoxy]-2-(trifluoromethyl)phenyl)propanoic acid]: the EC50 in experiment [1] was found to be 421 nM; at Human GPR120 short form it was 236 nM.

Regarding `COc1cccc(-c2nsc(C(F)(F)F)c2COc2c(F)cc(CCC(=O)O)cc2F)c1` [Cpd 94, 3-(3,5-difluoro-4-[[3-(3-methoxyphenyl)-5-(trifluoromethyl)-1,2-thiazol-4-yl]methoxy]phenyl)propanoic acid], the EC50 was found to be 104 nM in experiment [1] and 71 nM on Human GPR120 short form.

Consider `Cc1ccc(-c2nsc(C(F)(F)F)c2COc2c(F)cc(CCC(=O)O)cc2F)cc1F` [Cpd 91, 3-(3,5-difluoro-4-[[3-(3-fluoro-4-methylphenyl)-5-(trifluoromethyl)-1,2-thiazol-4-yl]methoxy]phenyl)propanoic acid], for which the half-maximal effective concentration (EC50) in experiment [1] amounted to 31 nM; on Human GPR120 short form, 69 nM.

With `Cc1ccc(-c2snc(Cl)c2COc2ccc(CCC(=O)O)c(C(F)(F)F)c2)c(F)c1` [Cpd 175, 3-(4-[[3-chloro-5-(2-fluoro-4-methylphenyl)-1,2-thiazol-4-yl]methoxy]-2-(trifluoromethyl)phenyl)propanoic acid], the EC50 amounted to 230 nM in experiment [1] and 247 nM on Human GPR120 short form.

As to `Cc1ccc(-c2nsc(C(F)(F)F)c2COc2ccc(CCC(=O)O)c(C(F)(F)F)c2)c(F)c1` [Cpd 171, 3-(4-[[3-(2-fluoro-4-methylphenyl)-5-(trifluoromethyl)-1,2-thiazol-4-yl]methoxy]-2-(trifluoromethyl)phenyl)propanoic acid], the concentration for a half-maximal effect (EC50) was determined as 1210 nM in experiment [1] and 226 nM at Human GPR120 short form.

Consider `O=C(O)CCc1cc(F)c(OCc2c(-c3ccc(F)c(F)c3)nsc2C(F)(F)F)c(F)c1` [Cpd 129, 3-(4-((3-(3,4-difluorophenyl)-5-(trifluoromethyl)isothiazol-4-yl)methoxy)-3,5-difluorophenyl)propanoic acid], for which, in experiment [1], the EC50 is 116 nM.

Consider `COc1ccc(-c2nsc(C(F)(F)F)c2COc2c(F)cc(CCC(=O)O)cc2F)cc1F` [Cpd 237, 3-(3,5-difluoro-4-[[3-(3-fluoro-4-methoxyphenyl)-5-(trifluoromethyl)-1,2-thiazol-4-yl]methoxy]phenyl)propanoic acid], for which the EC50 in experiment [1] came out at 96 nM.
